Reference: a melting point compilation (Tetko et al.; mined from patent text by program, amines drawn as free bases though some values may be those of a salt)

Row | melting point | Structure (SMILES)
1 | 110 to 112 °C | CCCCCCCCCCCc1cc2ccc(C(=O)OCC(O)CO)cc2[nH]1 (racemic)
2 | 147 °C | CC(C)CCCC(C)C1CCC2C3CC=C4CC(OC(=O)OCC(N)C(=O)O)CCC4(C)C3CCC12C (stereo not drawn)
3 | 77 to 79 °C | CCCc1c(S(=O)(=O)CCCOc2ccc(C(C)=O)c(OCCCC(=O)OCC)c2CCC)ccc(C(C)=O)c1O
4 | 46.1 to 47.5 °C | O=[N+]([O-])c1ccc(F)c(I)c1F
5 | 146 to 150 °C | CCC(=O)N(C)c1cccc(-c2ccc3nncn3n2)c1
6 | 195 to 225 °C | C=CCOC(=O)C1=C2CCSC[C@@H]2[C@@H]2/C(=C\C)C(=O)N12
7 | 46 to 48 °C | CCCCCCCCCCCCCCCC(=O)c1c(Br)cc(OC)c(OC)c1C(=O)NC[C@@H]1CCCN1CC
8 | 159 to 170 °C | O=c1[nH]c(=O)n(CCCBr)c2ccccc12
9 | 106 to 108 °C | c1ccc(-n2c(Cc3ccccn3)nc3ccccc32)cc1
10 | 184 to 187 °C | N#CCOc1ccc2cc(-c3cnc(Cc4ccccc4)o3)ccc2c1
11 | 194 to 195 °C | COC(=O)c1nc(Br)cc(N)c1Cl
12 | 189 to 190 °C | Nc1ncc(-c2cccc3ccc(Br)cc23)o1
13 | 265 to 266 °C | Cc1ccc2c3c(ncc2c1)CCC(=O)N3
14 | 160 to 163 °C | CC(C)c1cc(C(C)C)c(NC(=O)CN2CCN(CCSc3nc4ccccc4o3)CC2)c(C(C)C)c1
15 | 109 to 110 °C | COc1ccc2c(c1)C(=O)N(c1ccc(C(C)C)cn1)C2
16 | 190 to 194 °C | CCCc1c(OCc2ccc3ncc(CCC(=O)O)c(=O)n3c2)ccc(C(C)=O)c1O
17 | 107 to 109 °C | CNC(=O)CC1CN=C(c2cc3cc(Oc4ccc(S(C)(=O)=O)nc4)cc(OC(C)COC)c3[nH]2)S1 (stereo not drawn)
18 | 240 to 245 °C | Cn1c(COc2cccc(C(=O)O)c2)nc2ccc(Oc3cccnc3)cc21
19 | 160 to 161 °C | COC(=O)/C(=C/c1cccc([N+](=O)[O-])c1)CC(=O)O
20 | 74 to 77 °C | CCC(C(=O)O)c1ccc2c(c1)Cc1ccccc1S2 (stereo not drawn)
21 | 93 to 95 °C | O=C(O)c1cc(OCC(F)(F)F)cc(Oc2cccc(C(F)(F)F)c2)n1
22 | 84 to 85 °C | COC(=O)C1(C)CC(C(=O)Nc2ccc(I)cc2)=NN1c1ccc(F)cc1 (stereo not drawn)
23 | 226 °C | Cc1cc(-c2cnn3c(C(F)(F)F)cc(-c4ccc(Br)cc4)nc23)ccn1
24 | 130 °C | O=C(O)CCCn1c(=O)n2n(c1=O)C(C(=O)O)C=CC2 (stereo not drawn)

Row | melting point | Structure (SMILES)
25 | 240 °C | CCc1c(C)[nH]c(=O)c(I)c1Oc1cc(C)cc(C)c1
26 | 242 to 244 °C | CCN1CCC(c2nc(-c3ccncc3)c(-c3ccc(F)cc3)[nH]2)CC1
27 | 180 °C | Cn1cc(-c2cc(-c3cnc4ccccc4c3)ccn2)n(-c2ccc(C(C)(C)C#N)cc2)c1=O
28 | 184 to 185 °C | COC(=O)c1cc(C(=O)N2CCSCC2)c2cc(Cc3ccc(F)cc3)cnc2c1O
29 | 75 to 77 °C | COC(=O)c1cc(Cl)cnc1NCc1ccc(OC)cc1
30 | 143 to 145 °C | Clc1ccc([C@@]2(Cn3ccnc3)OC[C@H](COc3ccc4c(c3)CCNC4)O2)c(Cl)c1 (racemic)
31 | 94 to 95 °C | COc1cc(CCCC2OC(=O)NC2=O)cc(OC)c1OCc1coc(/C=C/c2ccccc2)n1 (stereo not drawn)
32 | 173 °C | COc1c(C)cc(-c2cncc(OC3SCC(O)C(O)C3O)c2)cc1C (stereo not drawn)
33 | 190 to 193 °C | CSc1nc(-c2cccnc2)n(-c2ccc(F)cc2)c(=O)c1C#N
34 | 148 to 149 °C | CC(C)C1(COC(C)(C)C)Cc2cc(OCC(=O)O)c(Cl)c(Cl)c2C1=O (stereo not drawn)
35 | 151 to 152 °C | CC(=O)Nc1cc(Cl)c(O)c(Cl)c1
36 | 70 to 72 °C | CCCCCCCCCCCCCCCCCCN(C)S(=O)(=O)c1cc(C(=O)OC)c([N+](=O)[O-])c(C(=O)OC)c1
37 | 187 °C | NNC(=O)NC(c1cccc(Cl)c1)c1ccnc2ccccc12 (stereo not drawn)
38 | 231 to 234 °C | O=C1NCCN(N=Cc2ccccc2)C1=O
39 | 118 °C | CCCn1cc(C2(c3cccc(-c4cccnc4F)c3)N=C(N)N(C)C2=O)cc1C(=O)CC (stereo not drawn)
40 | 106 to 108 °C | N#CCc1ncccc1[N+](=O)[O-]
41 | 104 °C | COc1ccc(C(=NN)Nc2ccc([N+](=O)[O-])cc2)cc1
42 | 138 to 140 °C | COc1cc(C(C)=O)ccc1OCCC(C)N1CCN(c2nn(C(=O)c3ccccc3)c3cc(F)ccc23)CC1 (stereo not drawn)
43 | 127 to 128 °C | COc1cc2c(cc1[N+](=O)[O-])CCN(CCCCl)C(=O)C2
44 | 136 to 138 °C | CN(C(=O)C(Br)OC(N)=O)c1ccccc1 (stereo not drawn)
45 | 161 to 163 °C | COC(=O)C1=C(S(=O)(=O)NC(=O)Nc2nc(C)cc(OC)n2)CCC1
46 | 229 to 233 °C | CC(C)(C)OC(=O)c1ncn2c1cc(C(=O)N1CCN(C3CC3)CC1)c1cc(Cl)ccc12
47 | 133 to 135 °C | O=C1CCc2c(Cl)sc(-c3ccccc3F)c21
48 | 104 to 105 °C | Cc1oc(-c2ccco2)nc1COc1ccc(Cn2cc(CCC(=O)O)c(OCc3ccccc3)n2)cc1

Row | melting point | Structure (SMILES)
49 | 110 to 111 °C | COc1cc(Br)c(OC)c2c1C=CCC2
50 | 181 to 184 °C | Cc1ccc(C)c(Sc2ccc(C#N)cc2S(=O)(=O)N2CCOCC2)c1
51 | 230 °C | Nc1ccccc1NC(=O)c1ccc(CNc2c(NCc3cccnc3)c(=O)c2=O)cc1
52 | 90 to 92 °C | CCCNC1CN(C(=O)Nc2ccc(C(F)(F)F)cc2)N=C1c1ccc(OC(F)F)c(C)c1 (stereo not drawn)
53 | 208 to 210 °C | CCSc1ccc2nc(C(F)(F)F)c(S(N)(=O)=O)n2n1
54 | 128 to 130 °C | Cc1cc(O)c(C2CCCCC2)cc1Sc1cc(C2CCCCC2)c(O)cc1C
55 | 168 to 169 °C | CCOC(=O)C(=O)Nc1nnc2c3c(c(N4CCCCC4)nn12)CCCC3
56 | 193 °C | COc1cncc(-c2ccc(OC3SCC(O)C(O)C3O)cn2)c1 (stereo not drawn)
57 | 118 to 122 °C | c1cncc(CSc2nnc(-c3ccc4c(c3)CCO4)o2)c1
58 | 105 to 107 °C | O=c1n(CCCC2CCCC2)ccn1-c1ccc([N+](=O)[O-])cc1
59 | 190 °C | O=C(C[C@@H]1COCCO1)N[C@H]1CC[C@H](CCN2CCC(c3cccc4c3CCO4)CC2)CC1
60 | 87 to 88 °C | O=C(O)CCC(O)c1ccc(-c2ccccc2)c(Cl)c1 (stereo not drawn)
61 | 143 to 144 °C | Cc1c(Cc2ccc(C(C)C)cc2)c2c(c(C)c1NC(=O)CC(C)(C)C)CC(C)(CN1CCCC1)O2 (stereo not drawn)
62 | 155 to 157 °C | N#Cc1ccc(-c2ncc(C(F)(F)F)cc2Cl)cc1O
63 | 85 to 86 °C | O=C(C1NCCc2occc21)N1CCCC1 (stereo not drawn)
64 | 133 to 135 °C | Cc1cc(C(C)N(O)C(N)=O)ccc1OC(C)c1ccccc1 (stereo not drawn)
65 | 104 to 106 °C | C=CCN/C(=C1/Sc2ccccc2C1=O)c1ccccc1
66 | 160 to 162 °C | NC(=O)NN=Cc1ccc(Oc2cccnc2)cc1
67 | 201 to 202 °C | Cc1ccsc1-c1ccc(C2(C)NC(=O)NC2=O)cc1 (stereo not drawn)
68 | 260 °C | O=CC1=C(Cl)Nc2cc(F)c(F)cc2C1
69 | 206 to 207 °C | C[C@]1(COc2ccc3nc(N4CCN(Cc5ccc(OC(F)(F)F)cc5)CC4)sc3c2)Cn2cc([N+](=O)[O-])nc2O1
70 | 229 to 231 °C | CC1NC(=O)NN=C1c1ccc(N)c(Cl)c1 (stereo not drawn)
71 | 119 to 121 °C | CC(CNC(=O)c1ccc(-c2ccc(Cl)cc2)cc1F)c1ccc(CN2CCCC2)cc1 (stereo not drawn)
72 | 176 to 178 °C | CC(C)C(C)(C(N)=O)N1C(=O)c2cccnc2C1=O (stereo not drawn)

Row | melting point | Structure (SMILES)
73 | 230 to 234 °C | O=C(N[C@@H](Cc1ccccc1)C(=O)N1CCS(=O)CC1)c1cc2cc(Cl)ccc2[nH]1
74 | 113 to 115 °C | CNC(=C[N+](=O)[O-])NCCSCc1cc(CN(C)C)ccn1
75 | 133 to 135 °C | Cc1c[nH]c(-c2ccnc(NC(=O)c3ccccc3)c2)n1
76 | 176 to 178 °C | CCCCOc1ncc(C(C)=O)cc1-c1nc2c(CC)n(C3CN(C(=O)OC(C)(C)C)C3)nc2c(=O)[nH]1
77 | 85 to 87 °C | COCCC1(C(=O)N[C@@H](Cc2ccc(NC(=O)c3c(Cl)cccc3Cl)cc2)C(=O)OC)CCCC1
78 | 105 °C | CCCCCCCOc1ccc(C(=O)O)c(F)c1F
79 | 160 to 162 °C | O=C(NC1CCN(CCc2cccc3ccccc23)CC1)c1ccccc1
80 | 192 °C | COC(/C=C/c1cccc(Cl)c1)=N/c1ccc(C(O)c2cncn2Cc2ccc(C#N)cc2)cc1 (stereo not drawn)
81 | 205 to 206 °C | Cc1c(F)c(N2CCN(C)CC2)c(C)c2c1c(=O)c(C(=O)O)cn2C1CC1
82 | 198 to 200 °C | CCCOc1ccc(S(=O)(=O)N2CCN(Cc3ccccc3)CC2)cc1-c1nc2cc(N)c([N+](=O)[O-])cc2c(=O)[nH]1
83 | 121 to 123 °C | O=C(NCc1ccccc1)C1=C(C(=O)Nc2ccc(Cl)cc2F)CCCC1
84 | 185 to 186 °C | COCCc1nc2c(N)nc3cc(OCc4ccccc4)ccc3c2n1CC(C)(C)O
85 | 58 to 64 °C | CCC1(C)NC(=O)C(C)(CC)N1 (stereo not drawn)
86 | 220 to 222 °C | COc1cc(O)c2c(c1)CCC1C2CCC2(C)C(=O)CCC12 (stereo not drawn)
87 | 89 to 91 °C | CCOc1ccc(OCCCN2CCC(C(O)(c3ccc(F)cc3)c3ccc(F)cc3)CC2)cc1
88 | 174 to 175 °C | Oc1cc2cc(-c3ccccc3Cl)sc2c(Cl)c1Cl
89 | 100 to 102 °C | CC(C)(C)c1ccc2c(c1)C(COCc1ccccc1)([Si](C)(C)C)c1cc(C(C)(C)C)ccc1-2
90 | 88 to 89 °C | O=C(c1nc2ccc(O)cc2[nH]1)N1CCC(=Cc2ccc(Cl)cc2)CC1
91 | 234 to 236 °C | CCCCc1nc2cccc(C(=O)O)c2n1Cc1ccc(-c2ccccc2S(=O)(=O)NC(=O)NCC2CC2)cc1
92 | 162 to 163 °C | OCC1Cc2c(c(Cl)cc3c(-c4ccccc4Cl)noc23)O1 (stereo not drawn)
93 | 151 to 153 °C | CN1CCN(CCCCC(=O)N2c3ccccc3C(=O)Nc3cccnc32)CC1
94 | 105 to 108 °C | CS(=O)(=O)NCCS(=O)(=O)N1CCN(S(=O)(=O)c2ccc(-c3ccc(C(F)(F)F)cc3)s2)[C@@H](C(=O)NO)C1
95 | 197 to 198 °C | N#Cc1cnc(N)cc1N

Row | Structure (SMILES) | melting point
96 | O=C1c2c(Cl)cccc2-n2cnc(-c3cccs3)c2[C@@H]2CCCN12 | 226 to 227 °C
97 | CC(=O)Cc1ccc(OCC2CO2)cc1 (stereo not drawn) | 43 °C
98 | CC(=O)Oc1cccc2c1C13CCN(C)C(C2)C1CCC(=O)C3 (single isomer, unassigned; (-)) | 96 to 97 °C
